Reference: the supplement of paper PMC6411743

Compound: Nc1ncnc2c1ncn2[C@@H]1O[C@H](COP(=O)(O)OP(=O)(O)OP(=O)(O)O)[C@@H](O)[C@H]1O [adenosine triphosphate]
Assay: pEC50 of ATP-induced change in protein thermal stability (2D-TPP)
Method in brief: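 Soluble protein was quantified by TMT LC-MS/MS after ultracentrifugation of Jurkat crude lysate that had been dosed at five concentrations including vehicle (10 min, room temperature), heated at 12 temperatures of 42–63.9 °C for 3 min, and incubated with NP40 and benzonase at 4 °C for 60 min. Fold changes against vehicle at each temperature were median-normalised, and pEC50 was derived from per-replicate dose-response fits over adjacent temperature pairs. Hits were called with permutation-based false discovery rate control in three independent experiments.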
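Also: lysate dosed with Na-ATP at 0 0.005 0.05 0.5 and 2 mM.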

UniProt P55036, sequence (P55036 whole entry): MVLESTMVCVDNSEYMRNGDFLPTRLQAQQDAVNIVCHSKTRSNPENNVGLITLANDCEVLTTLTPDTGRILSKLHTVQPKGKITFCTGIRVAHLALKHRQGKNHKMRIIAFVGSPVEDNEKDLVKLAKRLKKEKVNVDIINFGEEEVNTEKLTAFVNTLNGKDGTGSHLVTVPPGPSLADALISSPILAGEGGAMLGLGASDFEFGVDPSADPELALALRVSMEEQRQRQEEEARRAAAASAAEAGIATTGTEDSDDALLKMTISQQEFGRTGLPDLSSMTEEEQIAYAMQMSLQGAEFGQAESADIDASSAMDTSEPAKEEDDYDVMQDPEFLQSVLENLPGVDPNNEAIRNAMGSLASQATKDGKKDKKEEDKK
UniProt Q99460, sequence (Q99460 whole entry): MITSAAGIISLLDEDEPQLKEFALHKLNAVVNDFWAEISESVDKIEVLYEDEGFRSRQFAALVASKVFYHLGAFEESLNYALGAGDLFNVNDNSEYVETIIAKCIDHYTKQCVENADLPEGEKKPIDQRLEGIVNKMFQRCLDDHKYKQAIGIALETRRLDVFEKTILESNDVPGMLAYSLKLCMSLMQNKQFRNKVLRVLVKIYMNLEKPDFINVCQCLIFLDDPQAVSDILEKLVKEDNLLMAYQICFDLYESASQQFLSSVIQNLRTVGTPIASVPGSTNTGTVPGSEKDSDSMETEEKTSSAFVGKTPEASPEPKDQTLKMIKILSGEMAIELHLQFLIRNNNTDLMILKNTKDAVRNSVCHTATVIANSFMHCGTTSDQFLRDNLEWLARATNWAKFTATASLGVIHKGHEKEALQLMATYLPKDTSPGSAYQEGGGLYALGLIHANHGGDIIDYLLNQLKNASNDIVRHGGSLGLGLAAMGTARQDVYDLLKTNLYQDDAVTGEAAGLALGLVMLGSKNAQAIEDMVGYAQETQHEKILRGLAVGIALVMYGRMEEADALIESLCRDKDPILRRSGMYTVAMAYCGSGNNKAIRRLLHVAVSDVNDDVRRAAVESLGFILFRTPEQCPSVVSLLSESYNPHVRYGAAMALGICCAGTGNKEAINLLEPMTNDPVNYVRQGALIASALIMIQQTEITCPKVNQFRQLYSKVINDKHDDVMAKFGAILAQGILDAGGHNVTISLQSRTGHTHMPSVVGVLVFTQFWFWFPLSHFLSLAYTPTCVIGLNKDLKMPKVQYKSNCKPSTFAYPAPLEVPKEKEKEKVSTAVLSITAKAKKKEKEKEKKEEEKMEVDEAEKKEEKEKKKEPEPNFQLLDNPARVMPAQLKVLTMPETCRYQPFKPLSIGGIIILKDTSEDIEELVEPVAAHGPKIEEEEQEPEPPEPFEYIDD
UniProt O15355, sequence (O15355 whole entry): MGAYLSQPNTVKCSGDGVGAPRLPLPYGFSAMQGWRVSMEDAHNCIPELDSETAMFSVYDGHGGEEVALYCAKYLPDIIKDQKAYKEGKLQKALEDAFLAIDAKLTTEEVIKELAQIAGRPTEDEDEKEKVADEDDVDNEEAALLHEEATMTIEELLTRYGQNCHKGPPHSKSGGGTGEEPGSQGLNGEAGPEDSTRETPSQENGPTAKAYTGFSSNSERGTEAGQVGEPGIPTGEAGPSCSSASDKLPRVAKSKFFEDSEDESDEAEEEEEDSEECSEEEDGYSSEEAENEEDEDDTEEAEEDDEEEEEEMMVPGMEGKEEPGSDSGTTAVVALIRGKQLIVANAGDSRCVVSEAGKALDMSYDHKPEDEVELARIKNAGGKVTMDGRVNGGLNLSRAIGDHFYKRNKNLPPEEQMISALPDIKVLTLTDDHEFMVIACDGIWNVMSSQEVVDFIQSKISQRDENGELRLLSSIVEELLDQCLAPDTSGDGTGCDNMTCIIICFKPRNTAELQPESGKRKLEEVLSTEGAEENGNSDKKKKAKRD
UniProt P06748, sequence (P06748 whole entry): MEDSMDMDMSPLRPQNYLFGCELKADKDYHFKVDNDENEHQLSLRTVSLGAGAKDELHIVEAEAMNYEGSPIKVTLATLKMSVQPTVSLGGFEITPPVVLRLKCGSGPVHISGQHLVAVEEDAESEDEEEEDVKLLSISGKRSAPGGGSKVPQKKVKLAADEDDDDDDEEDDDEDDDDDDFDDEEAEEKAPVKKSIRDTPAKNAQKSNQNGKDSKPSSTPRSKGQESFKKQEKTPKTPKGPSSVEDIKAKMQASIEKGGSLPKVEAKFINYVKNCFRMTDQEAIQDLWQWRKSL
UniProt Q14657, sequence (Q14657 whole entry): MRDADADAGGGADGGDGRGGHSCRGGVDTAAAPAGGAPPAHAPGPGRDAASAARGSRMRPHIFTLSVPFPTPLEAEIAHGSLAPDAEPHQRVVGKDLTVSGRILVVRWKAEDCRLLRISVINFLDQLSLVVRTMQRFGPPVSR
UniProt Q15003, sequence (Q15003 whole entry): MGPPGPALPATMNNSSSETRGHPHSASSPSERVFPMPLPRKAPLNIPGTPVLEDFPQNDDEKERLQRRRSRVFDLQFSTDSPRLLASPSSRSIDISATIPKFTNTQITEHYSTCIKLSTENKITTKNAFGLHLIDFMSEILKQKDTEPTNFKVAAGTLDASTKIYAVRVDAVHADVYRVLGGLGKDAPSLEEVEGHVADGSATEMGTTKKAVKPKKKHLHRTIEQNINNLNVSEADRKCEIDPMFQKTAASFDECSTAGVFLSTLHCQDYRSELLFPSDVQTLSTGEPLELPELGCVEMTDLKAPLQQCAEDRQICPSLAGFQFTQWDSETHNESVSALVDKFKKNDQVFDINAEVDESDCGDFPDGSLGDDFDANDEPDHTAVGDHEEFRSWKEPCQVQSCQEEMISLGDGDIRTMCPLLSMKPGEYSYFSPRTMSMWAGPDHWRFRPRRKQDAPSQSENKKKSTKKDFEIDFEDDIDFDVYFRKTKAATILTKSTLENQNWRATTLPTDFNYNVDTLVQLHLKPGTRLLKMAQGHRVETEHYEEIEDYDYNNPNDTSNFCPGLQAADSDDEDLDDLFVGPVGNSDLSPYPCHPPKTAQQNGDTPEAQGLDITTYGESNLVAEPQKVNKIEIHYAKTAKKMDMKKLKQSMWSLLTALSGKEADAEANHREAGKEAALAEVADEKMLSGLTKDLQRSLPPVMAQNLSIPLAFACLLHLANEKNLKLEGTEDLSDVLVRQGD
UniProt Q5VV42, sequence (Q5VV42 whole entry): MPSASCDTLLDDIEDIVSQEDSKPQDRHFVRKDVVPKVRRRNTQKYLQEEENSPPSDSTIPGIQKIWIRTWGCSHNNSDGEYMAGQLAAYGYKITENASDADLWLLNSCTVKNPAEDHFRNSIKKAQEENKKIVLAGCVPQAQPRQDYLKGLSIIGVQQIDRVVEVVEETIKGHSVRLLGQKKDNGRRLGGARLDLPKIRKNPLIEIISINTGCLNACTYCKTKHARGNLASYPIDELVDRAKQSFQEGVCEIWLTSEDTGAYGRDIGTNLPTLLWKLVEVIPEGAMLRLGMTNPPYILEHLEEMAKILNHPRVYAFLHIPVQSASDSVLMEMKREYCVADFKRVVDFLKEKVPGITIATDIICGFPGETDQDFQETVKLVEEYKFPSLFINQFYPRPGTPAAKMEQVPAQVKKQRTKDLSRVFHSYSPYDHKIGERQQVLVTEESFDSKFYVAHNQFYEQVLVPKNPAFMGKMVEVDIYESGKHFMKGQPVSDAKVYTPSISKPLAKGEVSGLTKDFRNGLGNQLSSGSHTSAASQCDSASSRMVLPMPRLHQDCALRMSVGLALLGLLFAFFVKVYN
UniProt Q969G6, sequence (Q969G6 whole entry): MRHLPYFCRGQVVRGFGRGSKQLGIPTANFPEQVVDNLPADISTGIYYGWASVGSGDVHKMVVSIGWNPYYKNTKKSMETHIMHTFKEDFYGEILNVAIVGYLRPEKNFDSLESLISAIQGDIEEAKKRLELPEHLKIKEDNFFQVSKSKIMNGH
UniProt Q00403, sequence (Q00403 whole entry): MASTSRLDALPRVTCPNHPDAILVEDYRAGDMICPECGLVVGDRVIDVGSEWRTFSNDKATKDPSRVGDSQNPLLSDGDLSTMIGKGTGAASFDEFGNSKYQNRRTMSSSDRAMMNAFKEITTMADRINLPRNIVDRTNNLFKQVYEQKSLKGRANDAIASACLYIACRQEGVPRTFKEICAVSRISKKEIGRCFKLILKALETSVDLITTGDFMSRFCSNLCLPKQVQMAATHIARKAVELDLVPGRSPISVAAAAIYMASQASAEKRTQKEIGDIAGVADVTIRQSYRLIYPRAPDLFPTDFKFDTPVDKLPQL
UniProt P54577, sequence (P54577 whole entry): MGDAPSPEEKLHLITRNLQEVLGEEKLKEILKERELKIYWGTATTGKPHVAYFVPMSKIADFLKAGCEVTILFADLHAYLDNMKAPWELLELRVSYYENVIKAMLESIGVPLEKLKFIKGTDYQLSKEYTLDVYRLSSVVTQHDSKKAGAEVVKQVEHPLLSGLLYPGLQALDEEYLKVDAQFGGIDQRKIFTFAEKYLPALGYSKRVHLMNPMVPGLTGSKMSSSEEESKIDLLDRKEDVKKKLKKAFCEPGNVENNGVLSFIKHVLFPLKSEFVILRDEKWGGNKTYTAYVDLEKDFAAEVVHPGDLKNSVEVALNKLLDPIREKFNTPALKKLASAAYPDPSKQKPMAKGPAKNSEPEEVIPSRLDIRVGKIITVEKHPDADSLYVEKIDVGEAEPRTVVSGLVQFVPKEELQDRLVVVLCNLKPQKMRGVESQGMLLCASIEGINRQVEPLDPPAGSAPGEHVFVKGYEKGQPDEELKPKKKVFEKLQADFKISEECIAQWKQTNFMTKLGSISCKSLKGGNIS
UniProt Q9Y478, sequence (Q9Y478 whole entry): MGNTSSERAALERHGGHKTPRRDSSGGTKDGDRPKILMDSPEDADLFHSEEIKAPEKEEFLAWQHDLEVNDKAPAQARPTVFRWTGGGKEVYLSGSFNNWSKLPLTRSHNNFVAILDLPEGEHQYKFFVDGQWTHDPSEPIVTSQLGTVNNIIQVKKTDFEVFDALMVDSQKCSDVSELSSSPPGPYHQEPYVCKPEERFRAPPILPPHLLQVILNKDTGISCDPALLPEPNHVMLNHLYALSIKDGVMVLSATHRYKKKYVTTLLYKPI

Target | pEC50
CDKAL1 (effect direction: destabilized) (UniProt Q5VV42) | 2.9
BICD2 (effect direction: stabilized) (UniProt Q8TD16) | < 2.7
ADRM1 (effect direction: stabilized) (UniProt Q16186) | 4.04
GTF3A (effect direction: stabilized) (UniProt Q92664) | 3.03
CTSB (effect direction: stabilized) (UniProt P07858) | 3.34
FIGNL1 (effect direction: stabilized) (UniProt Q6PIW4) | 3.82
AHCY (effect direction: stabilized) (UniProt P23526) | 4.33
ANXA6 (effect direction: stabilized) (UniProt P08133) | < 2.7
PGK1 (effect direction: stabilized) (UniProt P00558) | 3.75
HTATSF1 (effect direction: stabilized) (UniProt O43719) | < 2.7
UniProt Q15208 (effect direction: stabilized) | 3.24
UniProt O14757 (effect direction: stabilized) | 3.26
RFK (effect direction: stabilized) (UniProt Q969G6) | 4.07
LAGE3 (effect direction: stabilized) (UniProt Q14657) | 3.86
NMNAT1 (effect direction: stabilized) (UniProt Q9HAN9) | 3.08
CEBPZ (effect direction: destabilized) (UniProt Q03701) | 3.06
SNX6 (effect direction: stabilized) (UniProt Q9UNH7) | < 2.7
GSN (effect direction: stabilized) (UniProt P06396) | 2.94
CLYBL (effect direction: destabilized) (UniProt Q8N0X4) | 2.92
GTF2B (effect direction: stabilized) (UniProt Q00403) | 3.26
DARS2 (effect direction: stabilized) (UniProt Q6PI48) | 4.12
TTF2 (effect direction: stabilized) (UniProt Q9UNY4) | 3.17

Target | pEC50
RPS3A (effect direction: destabilized) (UniProt P61247) | 3.86
HSPA8 (effect direction: stabilized) (UniProt P11142) | 4.09
DHX36 (effect direction: stabilized) (UniProt Q9H2U1) | 3.99
TRAP1 (effect direction: stabilized) (UniProt Q12931) | 3.33
CCDC12 (effect direction: destabilized) (UniProt Q8WUD4) | 3.49
ZNF740 (effect direction: stabilized) (UniProt Q8NDX6) | 3.16
PM20D2 (effect direction: stabilized) (UniProt Q8IYS1) | 2.86
SLC12A9 (effect direction: stabilized) (UniProt Q9BXP2) | 3.94
UniProt P42285 (effect direction: stabilized) | < 2.7
RANGAP1 (effect direction: stabilized) (UniProt P46060) | < 2.7
KRI1 (effect direction: destabilized) (UniProt Q8N9T8) | 2.81
PRKAB1 (effect direction: stabilized) (UniProt Q9Y478) | 3.22
FAM118A (effect direction: stabilized) (UniProt Q9NWS6) | 3.19
YARS2 (effect direction: stabilized) (UniProt Q9Y2Z4) | 3.97
UniProt Q9BY42 (effect direction: destabilized) | 3.25
UniProt O14965 (effect direction: stabilized) | 3.25
PDCD2 (effect direction: stabilized) (UniProt Q16342) | 3.06
MAP4K5 (effect direction: stabilized) (UniProt Q9Y4K4) | 3.41
SNRPB (effect direction: destabilized) (UniProt P14678) | < 2.7
UniProt P84095 (effect direction: destabilized) | 3.01
UniProt P62269 (effect direction: destabilized) | < 2.7
UniProt P62308 (effect direction: destabilized) | 2.78

Target | pEC50
UniProt P61353 (effect direction: destabilized) | > 5.3
UniProt Q13188 (effect direction: stabilized) | 3.25
PSMD1 (effect direction: stabilized) (UniProt Q99460) | 4.35
ST13 (effect direction: stabilized) (UniProt P50502) | 3.1
DHX16 (effect direction: stabilized) (UniProt O60231) | 4.14
DRAP1 (effect direction: destabilized) (UniProt Q14919) | < 2.7
SUPV3L1 (effect direction: stabilized) (UniProt Q8IYB8) | 3.12
AGK (effect direction: stabilized) (UniProt Q53H12) | 2.97
UniProt P62753 (effect direction: destabilized) | 3.15
NCAPH (effect direction: stabilized) (UniProt Q15003) | 3.5
SFXN1 (effect direction: stabilized) (UniProt Q9H9B4) | 2.77
YRDC (effect direction: stabilized) (UniProt Q86U90) | 2.91
PC (effect direction: stabilized) (UniProt P11498) | 3.45
POLR2C (effect direction: destabilized) (UniProt P19387) | 3.72
SF3B3 (effect direction: stabilized) (UniProt Q15393) | < 2.7
PARN (effect direction: stabilized) (UniProt O95453) | < 2.7
UniProt P62081 (effect direction: destabilized) | 3.68
KIF5B (effect direction: stabilized) (UniProt P33176) | 4.09
ZCCHC9 (effect direction: destabilized) (UniProt Q8N567) | < 2.7
CLCN3 (effect direction: stabilized) (UniProt P51790) | 3.23

Further lines, results first:

pEC50 | Target
2.83 | SHPK (effect direction: stabilized) (UniProt Q9UHJ6)
< 2.7 | FKBP4 (effect direction: stabilized) (UniProt Q02790)
3.51 | PFN2 (effect direction: stabilized) (UniProt P35080)
3.8 | LEMD2 (effect direction: stabilized) (UniProt Q8NC56)
< 2.7 | PPM1G (effect direction: stabilized) (UniProt O15355)
3.77 | PSMD4 (effect direction: stabilized) (UniProt P55036)
2.88 | NPM1 (effect direction: stabilized) (UniProt P06748)
3.5 | ABCB8 (effect direction: stabilized) (UniProt Q9NUT2)
2.88 | UBLCP1 (effect direction: destabilized) (UniProt Q8WVY7)
3 | UniProt Q63HN8 (effect direction: stabilized)
2.83 | HEATR3 (effect direction: stabilized) (UniProt Q7Z4Q2)
3.4 | CAMK2G (effect direction: stabilized) (UniProt Q13555)
2.92 | UniProt P0C0S8 (effect direction: stabilized)
2.79 | ANXA5 (effect direction: stabilized) (UniProt P08758)
2.96 | UniProt Q96EK5 (effect direction: stabilized)
2.78 | FAM49B (effect direction: stabilized) (UniProt Q9NUQ9)
5.25 | EMG1 (effect direction: stabilized) (UniProt Q92979)
< 2.7 | PCYT2 (effect direction: stabilized) (UniProt Q99447)
2.91 | TTC33 (effect direction: stabilized) (UniProt Q6PID6)
3.58 | RPA1 (effect direction: stabilized) (UniProt P27694)
2.78 | UniProt Q7Z2Z2 (effect direction: stabilized)
4.35 | A0AVT1 (effect direction: stabilized)
< 2.7 | USP14 (effect direction: stabilized) (UniProt P54578)
3.34 | UniProt Q9UH99 (effect direction: stabilized)
3.54 | PI4K2A (effect direction: stabilized) (UniProt Q9BTU6)
< 2.7 | UniProt P62495 (effect direction: stabilized)
2.86 | SRFBP1 (effect direction: destabilized) (UniProt Q8NEF9)
4.06 | ABCB10 (effect direction: stabilized) (UniProt Q9NRK6)
3.25 | YARS (effect direction: stabilized) (UniProt P54577)
